In paper PMC4084896 (PLoS ONE, 2014):
Converted amounts (≈) assume the structure as drawn.

Key:
[1] = tested on: primary human hepatocytes; experiment: MTT cytotoxicity test in primary human hepatocytes; type: cell-based; details: 50 µM, 24 h
Source text: (§1) A stably transfected gene reporter cell line AZ-AHR, derived from human hepatoma HepG2 cells transfected with a construct containing several AhR binding sites upstream of a luciferase reporter gene, was used for assessment of AhR transcriptional activity. A stably transfected gene reporter cell line AZ-GR, derived from human cervix carcinoma HeLa cells transfected with a construct containing several GR response elements upstream of a luciferase reporter gene, was used for assessment of GR transcriptional activity. Cells were incubated for 24 h with tested compounds and/or vehicle (DMSO; 0.1% v/v), in the presence or absence of TCDD (5 nM; AZ-AHR cells) or DEX (100 nM; AZ-GR cells). After the treatments, cells were lysed and luciferase activity was measured. In parallel, cell viability was determined by conventional MTT test.
(§2) The cells were treated for 24 h with (+)-KET, (−)-KET and commercial rac-KET (1 µM, 30 µM, 50 µM), and with TCDD (5 nM) and vehicle (DMSO; 0.1% V/V). […] In the cytotoxicity assay, we found all forms of KET highly toxic against human hepatocytes at the concentration 50 µM.

AZ-AHR cells = experiment: MTT cytotoxicity test in AZ-AHR cells; type: cell-based, human; details: 24 h incubation, six passages; read-out: AZ-AHR viability - MTT IC50
Source text: as §1
(§3) Prior to the agonist or antagonist experiments, the cytotoxicity of tested compounds was assessed using the conventional MTT assay. […] The vehicle was DMSO (0.1% v/v). After the treatment, a MTT test was performed.

[2] = target: T1, glucocorticoid receptor (GR) (Homo sapiens, UniProt P04150); experiment: GR gene reporter assay in AZ-GR cells, antagonist mode (DEX 100 nM); type: cell-based; details: 24 h; for IC50: in the presence of DEX 100 nM
T1 sequence (P04150 1-777): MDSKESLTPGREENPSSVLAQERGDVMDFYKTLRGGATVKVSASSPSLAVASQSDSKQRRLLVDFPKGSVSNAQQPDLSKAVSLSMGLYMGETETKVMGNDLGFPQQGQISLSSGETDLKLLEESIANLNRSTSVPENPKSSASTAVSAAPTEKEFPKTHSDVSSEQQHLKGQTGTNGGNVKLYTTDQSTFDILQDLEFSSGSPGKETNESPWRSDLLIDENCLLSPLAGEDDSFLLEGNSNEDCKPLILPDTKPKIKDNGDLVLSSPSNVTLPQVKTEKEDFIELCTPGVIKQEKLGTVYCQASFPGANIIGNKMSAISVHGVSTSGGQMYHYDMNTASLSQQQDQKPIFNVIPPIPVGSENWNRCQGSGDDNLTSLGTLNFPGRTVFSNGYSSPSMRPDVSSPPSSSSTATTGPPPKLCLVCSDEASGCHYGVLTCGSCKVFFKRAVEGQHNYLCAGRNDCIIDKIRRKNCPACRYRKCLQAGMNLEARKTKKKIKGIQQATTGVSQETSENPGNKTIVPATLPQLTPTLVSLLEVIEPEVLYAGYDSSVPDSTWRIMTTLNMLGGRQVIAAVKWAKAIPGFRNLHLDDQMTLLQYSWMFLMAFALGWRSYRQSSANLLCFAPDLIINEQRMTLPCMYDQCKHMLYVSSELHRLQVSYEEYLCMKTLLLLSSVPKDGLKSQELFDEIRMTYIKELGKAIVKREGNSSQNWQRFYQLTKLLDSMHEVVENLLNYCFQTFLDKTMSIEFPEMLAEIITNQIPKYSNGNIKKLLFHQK
Source text: as §1
There is multiple evidence for the role of glucocorticoid receptor (GR) in regulation of AhR activity. […] Gene reporter assays were performed in agonist and antagonist mode (similarly as described in section 3.1.).

C. albicans 1 = experiment: MIC assessment, microdilution; type: cell-based; details: 48 h, 37°C, MFC same as MIC
Protocol: (§4) Antifungal activity was assessed using the standard microdilution method determining the minimum inhibitory concentrations (MICs) of the tested samples leading to inhibition of yeast growth. Disposable microtiter plates were used for the tests. The samples were diluted in brain heart infusion broth (HiMedia). […] C. albicans, C. krusei, C. tropicalis and C. parapsilosis. […] Subsequently, 100 µL were transferred into the first microplate well and serially diluted by a factor of 2. The prepared microplates were inoculated with a standard amount of the tested Candida spp. – the inoculum density in a well was equal to 10^5 CFU/mL. […] The minimum fungicidal concentration (MFC) is the minimum concentration of the sample required to kill the yeast after a defined period of incubation. The MFCs were determined by the inoculation method. With an applicator, 10 µL were transferred from the microplate wells with defined concentrations of the tested sample and inoculated onto Sabouraud agar (Trios). The MFC was determined as the lowest concentration that inhibited the visible growth of the used yeast. For growth curve assessment, the samples were serially diluted in 96-well microtiter plates. […] Absorbance (630 nm) was measured every hour during 24 hours and the obtained values were used to plot growth curves

C. tropicalis 5 = experiment: MIC assessment, microdilution; type: cell-based; details: 48 h, 37°C, MFC same as MIC
Protocol: as §4

C. albicans 978 = experiment: MIC assessment, microdilution; type: cell-based; details: 48 h, 37°C, MFC same as MIC
Protocol: as §4

[3] = MTT cytotoxicity test in primary human hepatocytes; type: cell-based; details: primary human hepatocytes, read-out: viability, % of control value
Source text: as §1, §2

[4] = tested on: CYP1A1 catalytic activity (7-ethoxyresorufin-O-deethylase)
[5] = MTT cytotoxicity test in AZ-AHR cells; type: cell-based, human; details: human; 24 h incubation, six passages; read-out: AZ-AHR viability - MTT IC50
Source text: as §1, §3

SMILES	viability, % of control value [1] [%]	IC50 (AZ-AHR cells) [µM]	IC50 [2] [µM]	MIC/MFC (C. albicans 1) [µM]	MIC/MFC (C. tropicalis 5) [µM]	MIC/MFC (C. albicans 978) [µM]	viability at 24 h, 50 µM [3] [%]	EROD activity (in words) [4]	IC50 at 24 h [5] [µM]	inhibition of DEX-induced luciferase activity (in words) ([2]; DEX 100 nM)
CC(=O)N1CCN(c2ccc(OC[C@H]3CO[C@](Cn4ccnc4)(c4ccc(Cl)cc4Cl)O3)cc2)CC1 [(+)-KET, (2R,4S)-(+)-KET]	15	77.3 ± 23.9	29.6 ± 0.9	25 (≈ 13.3 µg/mL)	3.13 (≈ 1.66 µg/mL)	25 (≈ 13.3 µg/mL)				
CC(=O)N1CCN(c2ccc(OCC3COC(Cn4ccnc4)(c4ccc(Cl)cc4Cl)O3)cc2)CC1 (racemic) [rac-KET, ketoconazole]			> 100				46	increased the EROD activity in a concentration-dependent manner	67.2 ± 24.8	only weak inhibition
